The test system of this data set is CCRIS mutagenicity, Ames/micronucleus/aberration tests. Briefly: CCRIS mutagenicity studies.
[1] abbreviates: Test System: AMES SALMONELLA TYPHIMURIUM, Strain/Indicator: TA98, Metabolic Activation: NONE, Method: STANDARD PLATE.
The mark [2] stands for this setting: Test System: AMES SALMONELLA TYPHIMURIUM, Strain/Indicator: TA100, Metabolic Activation: NONE, Method: STANDARD PLATE.
The mark [3] stands for this setting: Test System: AMES SALMONELLA TYPHIMURIUM, Strain/Indicator: TA97, Metabolic Activation: HAMSTER, LIVER, S-9, AROCLOR 1254 (10 OR 30%), Method: PREINCUBATION
The mark [4] stands for this setting: Test System: AMES SALMONELLA TYPHIMURIUM, Strain/Indicator: TA97, Metabolic Activation: NONE, Method: PREINCUBATION
Setting [5] is: Test System: AMES SALMONELLA TYPHIMURIUM, Strain/Indicator: TA97, Metabolic Activation: RAT, LIVER, S-9, AROCLOR 1254 (10 OR 30%), Method: PREINCUBATION
[6] abbreviates: Test System: AMES SALMONELLA TYPHIMURIUM, Strain/Indicator: TA98, Metabolic Activation: HAMSTER, LIVER, S-9, AROCLOR 1254 (10 OR 30%), Method: PREINCUBATION
Where [7] appears, read: Test System: AMES SALMONELLA TYPHIMURIUM, Strain/Indicator: TA98, Metabolic Activation: NONE, Method: PREINCUBATION
The mark [8] stands for this setting: Test System: AMES SALMONELLA TYPHIMURIUM, Strain/Indicator: TA98, Metabolic Activation: RAT, LIVER, S-9, AROCLOR 1254 (10 OR 30%), Method: PREINCUBATION
[9] abbreviates: Test System: AMES SALMONELLA TYPHIMURIUM, Strain/Indicator: TA100, Metabolic Activation: HAMSTER, LIVER, S-9, AROCLOR 1254 (10 OR 30%), Method: PREINCUBATION
Where [10] appears, read: Test System: AMES SALMONELLA TYPHIMURIUM, Strain/Indicator: TA100, Metabolic Activation: NONE, Method: PREINCUBATION
The mark [11] stands for this setting: Test System: AMES SALMONELLA TYPHIMURIUM, Strain/Indicator: TA100, Metabolic Activation: RAT, LIVER, S-9, AROCLOR 1254 (10 OR 30%), Method: PREINCUBATION
Where [12] appears, read: Test System: AMES SALMONELLA TYPHIMURIUM, Strain/Indicator: TA1535, Metabolic Activation: HAMSTER, LIVER, S-9, AROCLOR 1254 (10 OR 30%), Method: PREINCUBATION
[13] abbreviates: Test System: AMES SALMONELLA TYPHIMURIUM, Strain/Indicator: TA1535, Metabolic Activation: NONE, Method: PREINCUBATION
Where [14] appears, read: Test System: AMES SALMONELLA TYPHIMURIUM, Strain/Indicator: TA1535, Metabolic Activation: RAT, LIVER, S-9, AROCLOR 1254 (10 OR 30%), Method: PREINCUBATION
The mark [15] stands for this setting: Test System: AMES SALMONELLA TYPHIMURIUM, Strain/Indicator: TA1537, Metabolic Activation: NONE, Method: PREINCUBATION
[16] abbreviates: Test System: AMES SALMONELLA TYPHIMURIUM, Strain/Indicator: TA1537, Metabolic Activation: RAT, LIVER, S-9, AROCLOR 1254 (10 OR 30%), Method: PREINCUBATION

Active and inactive are the calls of the source. How the calls were made is not given here.

For `CC(Cl)c1ccccc1` (stereo not drawn), the mutagenic call is, setting by setting: under setting [1], “inactive; negative”; under setting [2], “inactive; negative”.

Regarding `O=[N+]([O-])c1cccc(Cl)c1F`, the mutagenic call (End Point: IN VITRO CHROMOSOMAL ABERRATIONS, Test System: CHL CELLS, Metabolic Activation: RAT, LIVER, S-9, SODIUM PHENOBARBITAL AND 5,6-BENZOFLAVONE) was “active; positive (structural changes)”.

As for `O=[N+]([O-])c1cc([N+](=O)[O-])c2c3ccccc3c3cccc4ccc1c2c43`, the mutagenic call under setting [1] was “active; positive”.

On to `CN(C)c1ccc2nc3ccc(=[N+](C)C)cc-3sc2c1`, for which the mutagenic call is, setting by setting: (End Point: In vitro chromosomal aberrations, Test System: Chinese hamster ovary cells, Metabolic Activation: None) “active; positive”; (End Point: In vitro chromosomal aberrations, Test System: Chinese hamster ovary cells, Metabolic Activation: Rat, Liver, S-9, Aroclor) “active; positive”; (End Point: In vivo micronucleus, Test System: Bone marrow, Species: Mouse, Strain/Sex: B6C3F1/Male, Route: Intraperitoneal) “inactive; negative”; (End Point: In vivo micronucleus, Test System: Peripheral blood normochromatic erythrocytes, Species: Mouse, Strain/Sex: B6C3F1/Female, Route: Oral) “inactive; negative”; (End Point: In vivo micronucleus, Test System: Peripheral blood normochromatic erythrocytes, Species: Mouse, Strain/Sex: B6C3F1/Male, Route: Intraperitoneal) “inactive; negative”; (End Point: In vivo micronucleus, Test System: Peripheral blood normochromatic erythrocytes, Species: Mouse, Strain/Sex: B6C3F1/Male, Route: Oral) “inactive; negative”. Further, the mutagenic call by setting is: (Test System: AMES SALMONELLA TYPHIMURIUM, Strain/Indicator: TA98, Metabolic Activation: HAMSTER, LIVER, S-9, AROCLOR 1254, Method: STANDARD PLATE) “active; positive”; under setting [1], “inactive; negative”; (Test System: AMES SALMONELLA TYPHIMURIUM, Strain/Indicator: TA98, Metabolic Activation: RAT, LIVER, S-9, AROCLOR 1254, Method: STANDARD PLATE) “active; positive”; under setting [2], “active; positive”; (Test System: AMES SALMONELLA TYPHIMURIUM, Strain/Indicator: TA100, Metabolic Activation: RAT, LIVER, S-9, AROCLOR 1254, Method: STANDARD PLATE) “active; positive”; (Test System: Ames Salmonella typhimurium, Strain/Indicator: TA98, Metabolic Activation: Hamster, Liver, S-9, Aroclor 1254 (30%), Method: Standard plate) “active; positive”. For the same compound, the mutagenic call reads like this: (Test System: Ames Salmonella typhimurium, Strain/Indicator: TA98, Metabolic Activation: None, Method: Preincubation) “active; positive”; (Test System: Ames Salmonella typhimurium, Strain/Indicator: TA98, Metabolic Activation: None, Method: Standard plate) “active; positive”; (Test System: Ames Salmonella typhimurium, Strain/Indicator: TA98, Metabolic Activation: Rat, Liver, S-9, Aroclor 1254 (10%), Method: Preincubation) “active; positive”; (Test System: Ames Salmonella typhimurium, Strain/Indicator: TA98, Metabolic Activation: Rat, Liver, S-9, Aroclor 1254 (30%), Method: Standard plate) “active; positive”; (Test System: Ames Salmonella typhimurium, Strain/Indicator: TA100, Metabolic Activation: Hamster, Liver, S-9, Aroclor 1254 (30%), Method: Standard plate) “active; positive”; (Test System: Ames Salmonella typhimurium, Strain/Indicator: TA100, Metabolic Activation: None, Method: Preincubation) “active; positive”. In addition, the mutagenic call (Test System: Ames Salmonella typhimurium, Strain/Indicator: TA100, Metabolic Activation: None, Method: Standard plate) is “inactive; negative (ntp describes as equivocal)”; the mutagenic call (Test System: Ames Salmonella typhimurium, Strain/Indicator: TA100, Metabolic Activation: Rat, Liver, S-9, Aroclor 1254 (10%), Method: Preincubation) is “active; positive”; the mutagenic call (Test System: Ames Salmonella typhimurium, Strain/Indicator: TA100, Metabolic Activation: Rat, Liver, S-9, Aroclor 1254 (30%), Method: Standard plate) is “active; positive”; the mutagenic call (Test System: E. coli, Strain/Indicator: WP uvrA/pKM101, Metabolic Activation: None, Method: Preincubation) was “active; positive”; the mutagenic call (Test System: E. coli, Strain/Indicator: WP uvrA/pKM101, Metabolic Activation: Rat, Liver, S-9, Aroclor 1254 (10%), Method: Preincubation) is “active; positive”; the mutagenic call (Test System: MOUSE LYMPHOMA, Strain/Indicator: L5178Y (TK+/TK-), Metabolic Activation: NONE, Method: SUSPENSION/PLATE) is “active; positive”. The mutagenic call is, setting by setting: (Test System: MOUSE LYMPHOMA, Strain/Indicator: L5178Y (TK+/TK-), Metabolic Activation: RAT, LIVER, S-9, Method: SUSPENSION/PLATE) “active; positive”; (Test System: Mouse lymphoma, Strain/Indicator: L5178Y (tk+/tk-), Metabolic Activation: None, Method: Suspension/plate) “active; positive”; (Test System: Mouse lymphoma, Strain/Indicator: L5178Y (tk+/tk-), Metabolic Activation: Rat, Liver, S-9, Aroclor 1254, Method: Suspension/plate) “active; positive”.

Regarding `CCCCCCc1ccc(-c2ccc(C#N)cc2)cc1`, the mutagenic call is “inactive; negative” under setting [3]; “inactive; negative” under setting [4]; “inactive; negative” under setting [5]; “inactive; negative” under setting [6]; “inactive; negative” under setting [7]; “inactive; negative” under setting [8]. The mutagenic call runs as follows: under setting [9], “inactive; negative”; under setting [10], “inactive; negative”; under setting [11], “inactive; negative”; under setting [12], “inactive; negative”; under setting [13], “inactive; negative”; under setting [14], “inactive; negative”. For the same compound, the mutagenic call (Test System: AMES SALMONELLA TYPHIMURIUM, Strain/Indicator: TA1537, Metabolic Activation: HAMSTER, LIVER, S-9, AROCLOR 1254 (10 OR 30%), Method: PREINCUBATION) is “inactive; negative”; the mutagenic call under setting [15] was “inactive; negative”; the mutagenic call under setting [16] was “inactive; negative”.

As to `COc1ccc(C(Cl)=C(c2ccc(OC)cc2)c2ccc(OC)cc2)cc1`, the mutagenic call is, setting by setting: under setting [3], “inactive; negative”; under setting [4], “inactive; negative”; under setting [5], “inactive; negative”; under setting [6], “inactive; negative”; under setting [7], “inactive; negative”; under setting [8], “inactive; negative”. In addition, the mutagenic call reads like this: under setting [9], “inactive; negative”; under setting [10], “inactive; negative”; under setting [11], “inactive; negative”; under setting [12], “inactive; negative”; under setting [13], “inactive; negative”; under setting [14], “inactive; negative”. The mutagenic call runs as follows: (Test System: AMES SALMONELLA TYPHIMURIUM, Strain/Indicator: TA1537, Metabolic Activation: HAMSTER, LIVER, S-9, AROCLOR 1254 (10%), Method: PREINCUBATION) “inactive; negative”; (Test System: AMES SALMONELLA TYPHIMURIUM, Strain/Indicator: TA1537, Metabolic Activation: HAMSTER, LIVER, S-9, AROCLOR 1254 (30%), Method: PREINCUBATION) “inactive; negative”; under setting [15], “inactive; negative”; under setting [16], “inactive; negative”.

Take `CC(O)c1cc2ccc3cccc4ccc(c1)c2c34` (stereo not drawn): the mutagenic call (Test System: AMES SALMONELLA TYPHIMURIUM, Strain/Indicator: TA98, Metabolic Activation: HUMAN, LIVER, CYTOSOL, PAPS, Method: PREINCUBATION) was “active; positive”.

(Values after PubChem BioAssay AID1259407 (Chemical Carcinogenesis Research Information System (CCRIS), 2018).)
